Test results from patent publication US20070135453A1, “6-(2,4,6-Trihalophenyl)triazolopyrimidines, their preparation and their use for controlling harmful fungi, and compositions comprising these compounds” (BASF Aktiengesellschaft, priority 2003, published 2007).

Assays:
[1] = test system: Botrytis cinerea; assay: Activity against gray mold on bell-pepper leaves caused by Botrytis cinerea, protective application; type: in vivo; settings: 250 ppm, protective spray, assessed after 5 days, untreated plants 100% infected
Protocol: (§1) The active compounds were prepared as a stock solution with 25 mg of active compound which was made up to 10 ml using a mixture of acetone and/or DMSO and the emulsifier Uniperol® EL (wetting agent having emulsifying and dispersing action based on ethoxylated alkylphenols) in a volume ratio of solvent/emulsifier of 99 to 1.
(§2) The mixture was then made up with water to 100 ml. This stock solution was diluted with the solvent/emulsifier/water mixture described to the concentration of active compounds stated below.
Use Example 2—Activity Against Gray Mold on Bell-Pepper Leaves Caused by Botrytis cinerea, Protective Application
Bell-pepper seedlings of the cultivar “Neusiedler Ideal Elite” were, after 2 to 3 leaves were well developed, sprayed to runoff point with an aqueous suspension having the concentration of active compounds stated below. The next day, the treated plants were inoculated with a spore suspension of Botrytis cinerea which contained 1.7×10^6 spores/ml in a 2% aqueous biomold solution. The test plants were then placed in a dark acclimatized chamber at 22 to 24° C. and high atmospheric humidity. After 5 days, the extent of the fungal infection on the leaves could be determined visually in %.

[2] = test system: Pyrenophora teres; assay: Activity against net blotch of barley caused by Pyrenophora teres, protective application; type: in vivo; settings: 250 ppm, protective spray, assessed after 6 days, untreated plants 90% infected
Protocol: as §1, §2
Use Example 1—Activity Against Net blotch of Barley Caused by Pyrenophora teres, Protective Application
Leaves of potted barley seedlings of the cultivar “Hanna” were sprayed to runoff point with an aqueous suspension having the concentration of active compounds stated below. 24 hours after the spray coating had dried on, the test plants were inoculated with an aqueous spore suspension of Pyrenophora [syn. Drechslera]teres, the net blotch pathogen. The test plants were then placed in a greenhouse at temperatures between 20 and 24° C. and 95 to 100% relative atmospheric humidity. After 6 days, the extent of the development of the disease was determined visually in % infection of the entire leaf area.

Structure (SMILES): CC1CCN(c2c(-c3c(Cl)cc(Cl)cc3Cl)c(C#N)nc3ncnn23)CC1 [Example 1, 5-cyano-6-(2,4,6-trichlorophenyl)-7-(4-methylpiperidinyl)-1,2,4-triazolo[1,5a]pyrimidine]
- fungal infection on the leaves [1]: about 7%
- infection of the entire leaf area [2]: about 1%
